According to patent US20240391931A1 (Bristol-Myers Squibb Company, priority 2021, published 2024):

Tests used:
EGFR = EGFR (Homo sapiens, UniProt P00533); assay: EGFR signaling (pEGFR Tyr1068/total EGFR MSD) in A431 cells; format: cell-based; design: endogenous in cells; host or cells: A431, N87; details: for EC50: A431 cells, read-out: A431 pEGFR EC50; for Selectivity A431 EC50/BT474 EC50: ratio A431 pEGFR EC50 to BT474 pHER2 EC50; for Selectivity A431 EC50/HEKYVMA EC50: ratio A431 pEGFR EC50 to HEK YVMA pHER2 EC50
EGFR, sequence (P00533 25-1210): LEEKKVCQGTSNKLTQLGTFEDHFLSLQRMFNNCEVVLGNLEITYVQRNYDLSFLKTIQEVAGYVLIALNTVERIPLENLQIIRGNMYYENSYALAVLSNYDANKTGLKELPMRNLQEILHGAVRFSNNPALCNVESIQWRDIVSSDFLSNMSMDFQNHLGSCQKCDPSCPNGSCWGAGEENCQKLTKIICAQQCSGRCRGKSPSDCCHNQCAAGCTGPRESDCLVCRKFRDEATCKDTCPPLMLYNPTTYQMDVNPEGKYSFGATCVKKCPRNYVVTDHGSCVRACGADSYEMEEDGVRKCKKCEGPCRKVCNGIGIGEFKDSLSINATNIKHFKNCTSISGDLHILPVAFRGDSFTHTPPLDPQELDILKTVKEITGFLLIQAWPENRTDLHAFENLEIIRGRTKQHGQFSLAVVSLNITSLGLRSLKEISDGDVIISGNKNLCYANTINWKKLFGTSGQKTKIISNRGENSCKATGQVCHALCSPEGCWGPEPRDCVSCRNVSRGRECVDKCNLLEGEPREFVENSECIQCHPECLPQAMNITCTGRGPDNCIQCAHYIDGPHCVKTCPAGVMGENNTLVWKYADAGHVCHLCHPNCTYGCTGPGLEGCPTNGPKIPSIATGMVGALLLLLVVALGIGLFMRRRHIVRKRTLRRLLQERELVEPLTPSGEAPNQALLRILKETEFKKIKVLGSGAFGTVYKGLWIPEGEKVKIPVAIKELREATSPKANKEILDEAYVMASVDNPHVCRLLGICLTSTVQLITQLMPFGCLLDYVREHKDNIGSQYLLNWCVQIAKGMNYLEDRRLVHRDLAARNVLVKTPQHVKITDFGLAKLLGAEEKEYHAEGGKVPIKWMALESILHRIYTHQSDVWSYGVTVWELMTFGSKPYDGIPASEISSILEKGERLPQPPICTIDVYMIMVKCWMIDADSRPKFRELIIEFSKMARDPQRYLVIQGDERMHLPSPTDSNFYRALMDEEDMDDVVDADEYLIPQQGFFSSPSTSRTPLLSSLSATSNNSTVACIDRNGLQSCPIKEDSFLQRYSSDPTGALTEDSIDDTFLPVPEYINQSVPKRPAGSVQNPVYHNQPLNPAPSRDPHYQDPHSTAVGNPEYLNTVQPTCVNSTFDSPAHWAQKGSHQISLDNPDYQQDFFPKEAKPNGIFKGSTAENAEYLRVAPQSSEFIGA
Experimental: In addition to the engineered cell lines, the following cell lines were used: BT474 (human breast carcinoma), N87 (human gastric carcinoma), NCI-H1781 (human lung adenocarcinoma), and A431 (human epidermoid carcinoma); all cell lines were obtained from the American Type Culture Collection (ATCC, Manassas, VA). NCI-H1781 were grown in complete RPMI 1640 (Life Technologies, Carlsbad, CA) supplemented with 15% fetal bovine serum (FBS, Life Technologies, Carlsbad, CA) and 1% Penicillin-Streptomycin (P/S, Life Technologies, Carlsbad, CA). N87 cells were grown in complete RPMI 1640 supplemented with 10% FBS and 1% P/S. BT474 and A431 cells were grown in DMEM (Life Technologies, Carlsbad, CA) supplemented with 10% FBS and 1% P/S. All cells were maintained and propagated in a humidified 5% CO2 incubator at 37° C.
A431 Cells were plated in 96-well tissue-culture treated plates in full media for 6 h, then starved with media containing 0.1% FBS for overnight. Media was replaced with low serum media (1% FBS) containing compound at 10, 3.3, 1.1, 0.37, 0.12, 0.041, 0.014, 0.005 μM or DMSO control (0.1%). Cells were incubated for 1.5 hr, then stimulated with 100 ng/mL human EGF (PeproTech, Rocky Hill, NJ) for 10 minutes. Cells were washed with cold PBS, and lysed for 30 min on ice in complete MSD lysis buffer (prepared as described in HER2 Signaling Method); lysates were stored at −70° C. until further analysis. EGFR signaling was evaluated using phospho (Tyr 1068)/total EGFR whole cell lysate kit (Meso-Scale Discovery, Gaithersburg, MD). The phospho EGFR signal was normalized to total EGFR for each sample; results are reported as % DMSO control. The normalized data was fitted using a sigmoidal curve analysis program (Graph Pad Prism version 6) with variable Hill slope to determine EC50 values. The results are provided in Table 4, under column titled “A431-pEGFR EC50”.

HER2YVMA = HER2YVMA (Homo sapiens, UniProt P04626, INS775YVMA); assay: HER2 signaling (pHER2) in Hek293-HER2YVMA cells; format: cell-based; design: expressed in transfected cells; host or cells: HEK293 (pool), Ba/F3 (clones), BEAS2B (clones); lentiviral vector pCDH-CMV-MCS-EF1-Neo; details: 1.5 hr compound, 1% FBS, read-out: HEKYVMA pHER2 EC50
HER2YVMA, sequence (P04626 with tags, fused parts or gaps INS775YVMA): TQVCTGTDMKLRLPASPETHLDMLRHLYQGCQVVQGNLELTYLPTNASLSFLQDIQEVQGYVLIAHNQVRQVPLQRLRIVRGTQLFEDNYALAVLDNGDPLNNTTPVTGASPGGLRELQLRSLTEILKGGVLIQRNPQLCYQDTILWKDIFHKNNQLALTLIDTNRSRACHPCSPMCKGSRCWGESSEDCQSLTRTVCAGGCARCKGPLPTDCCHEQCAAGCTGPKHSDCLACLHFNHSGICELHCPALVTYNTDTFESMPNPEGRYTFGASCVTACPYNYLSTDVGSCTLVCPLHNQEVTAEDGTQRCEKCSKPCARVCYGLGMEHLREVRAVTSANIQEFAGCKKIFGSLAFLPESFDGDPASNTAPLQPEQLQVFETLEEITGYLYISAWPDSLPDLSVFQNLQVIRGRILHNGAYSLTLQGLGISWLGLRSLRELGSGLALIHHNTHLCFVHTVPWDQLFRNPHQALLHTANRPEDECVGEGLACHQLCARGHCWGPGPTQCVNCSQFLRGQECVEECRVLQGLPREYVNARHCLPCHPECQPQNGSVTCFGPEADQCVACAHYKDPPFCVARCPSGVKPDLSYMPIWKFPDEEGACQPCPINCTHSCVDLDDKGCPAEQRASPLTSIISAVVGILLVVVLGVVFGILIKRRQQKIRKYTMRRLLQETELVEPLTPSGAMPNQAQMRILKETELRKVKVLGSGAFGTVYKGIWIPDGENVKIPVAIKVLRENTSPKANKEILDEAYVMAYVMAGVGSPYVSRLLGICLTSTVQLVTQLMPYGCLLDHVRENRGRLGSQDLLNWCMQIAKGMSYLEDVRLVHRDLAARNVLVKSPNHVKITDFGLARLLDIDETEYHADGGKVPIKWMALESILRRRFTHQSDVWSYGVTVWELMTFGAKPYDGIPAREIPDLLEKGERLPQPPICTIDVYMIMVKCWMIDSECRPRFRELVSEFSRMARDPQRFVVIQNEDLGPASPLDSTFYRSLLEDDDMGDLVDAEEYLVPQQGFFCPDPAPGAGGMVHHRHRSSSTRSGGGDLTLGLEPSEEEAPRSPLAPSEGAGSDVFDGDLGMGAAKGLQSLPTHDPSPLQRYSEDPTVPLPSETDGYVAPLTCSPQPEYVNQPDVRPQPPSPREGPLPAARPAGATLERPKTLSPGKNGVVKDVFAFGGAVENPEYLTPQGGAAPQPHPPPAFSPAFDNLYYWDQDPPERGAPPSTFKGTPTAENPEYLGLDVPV
Experimental: Cell culture, plasmid cloning, and lentiviral transduction were carried out according to standard procedures. The Human HER2 cDNA construct in pCMV6-Entry for the HER2 wildtype (WT) expression was obtained from Origene. The HER2 cDNA including the 12-nucleotide insertion corresponding to YVMA insertion (HER2YVMA) was codon optimized, synthesized and cloned by GenScript (Piscataway, NJ) in pcDNA3.1. The lentiviral constructs expressing HER2YVMA and HER2 WT were sub-cloned using PCR at System Biosciences (SBI, Mountainview, CA) into lentiviral vectors pCDH-CMV-MCS-EF1-Neo and lentiviral particles were generated.
Engineered lines expressing HER2YVMA and HER2 WT were prepared in HEK293 (human embryonic kidney cells), Ba/F3 (Interleukin 3 (IL3)-dependent murine pro B cell line), and BEAS2B (primary immortalized human bronchial epithelial cell line). Ba/F3, BEAS2B, and HEK293 cells were obtained from the American Type Culture Collection (ATCC, Manassas, VA). Parental Ba/F3 cells were grown in suspension in complete RPMI 1640 supplemented with 10% FBS and 1% P/S and 10 ng/ml interleukin 3 (IL3, Sigma-Aldrich). Hek293 and BEAS2B cells were grown as monolayers in DMEM supplemented with 10% FBS and 1% P/S. All cells were maintained and propagated in a humidified 5% CO2 incubator at 37° C.
To generate Ba/F3, BEAS2B, and Hek-293 cells engineered with lentivirus to express HER2 WT or HER2YVMA, the cells were transduced with lentiviruses at multiplicity of infection (MOI) of 1 or 10; transduced cells were selected and maintained with G418 ([…]) (Geneticin, Life Technologies, Carlsbad, CA). Ba/F3 engineered cells were subjected to gradual withdrawal of interleukin 3 (IL-3, Sigma-Aldrich). After selection, IL3 independent Ba/F3 HER2YVMA, and BEAS2B HER2YVMA cells were cloned by limiting dilution. Hek293 HER2YVMA cells were used as pool. HER2 and phospho HER2 levels were confirmed by flow cytometery and immunoassay (MSD, Meso-Scale Discovery, Rockville, Maryland).
HER2 signaling was assessed in BT474 and N87 cell lines which endogenously overexpress the HER2 wildtype (WT) protein, in NCI-H1781 cells which endogenously expresses a HER2 mutant protein containing a VC insertion in the kinase domain (HER2VC or G776delinsVC), and in engineered cell lines transduced to express the Her2 mutant protein containing the YVMA insertion (Hek293-HER2YVMA and BEAS2B-HER2YVMA).
BT474, N87, and NCI-H1781 were plated in 96-well tissue-culture treated plates (Corning Costar, Sigma-Aldrich) in full media and incubated overnight. Hek293-HER2YVMA and BEAS2B-HER2YVMA cells were plated in 96-well poly-D-lysine treated plates (BD Bioscience, San Jose, CA). For treatment with test compounds, the media was replaced with corresponding low serum media (1% FBS) containing test compound at 1.1, 0.37, 0.12, 0.041, 0.014, 0.005, 0.0014, 0.0005 μM or DMSO control (0.1%). Cells were incubated with compound for 1.5 hr at 37° C. After compound treatment, the media was removed and cells were lysed for 30 min on ice in complete MSD lysis buffer (prepared using MSD base lysis buffer (Meso-Scale Discovery) supplemented with cOmplete, EDTA-free Protease inhibitor cocktail (Roche), Phosphatase Inhibitor Cocktails 2 and 3 (Sigma-Aldrich), and 1 mM PMSF (Sigma-Aldrich)). Lysates were stored at −70° C. until further analysis.
HER2 signaling was evaluated using phospho (Tyr1248)/total ErbB2 whole cell lysate MSD plates (Meso-Scale Discovery, Gaithersburg, MD). The phospho HER2 signal was normalized to total HER2 for each sample; results are reported as % DMSO control. The normalized data was fitted using a sigmoidal curve analysis program (Graph Pad Prism version 6) with variable Hill slope to determine EC50 values.
The HER2 signaling results are provided in Table 4, under columns titled “BT474-pHER2 EC50”, “N87-pHER2 EC50”, and “NCI-H1781-pHER2 EC50”. […]

Row | Compound | EC50 (EGFR) [nM] | Selectivity A431 EC50/BT474 EC50 (EGFR) | Selectivity A431 EC50/HEKYVMA EC50 (EGFR) | EC50 (HER2YVMA) [nM]
1 | C=CC(=O)N1[C@H](C)Cc2c(sc3ncnc(Nc4ccc(Oc5ccc(C)nc5)c(C)c4)c23)[C@H]1C (racemic) [Compound 166, 1-(6,8-trans-dimethyl-4-((3-methyl-4-((6-methylpyridin-3-yl)oxy)phenyl)amino)-5,8-dihydropyrido[4′,3′:4,5]thieno[2,3-d]pyrimidin-7(6H)-yl)prop-2-en-1-one] | 100 to 1000 | B (B: ≥ 20 and < 100) | C (C: ≥ 10 and < 20) | < 100
2 | C=CC(=O)N1Cc2sc3ncnc(Nc4ccc(Oc5ccc(C)nc5)c(C)c4)c3c2C(C)C1 (single isomer, unassigned) [Compound 145] | 100 to 1000 | C (C: ≥ 10 and < 20) | E (E: >1 and < 5) | < 100
3 | C=CC(=O)N1Cc2sc3ncnc(Nc4ccc(Oc5ccc(C)nc5)c(C)c4)c3c2C(C)C1 (single isomer, unassigned) [Compound 146] | < 100 | C (C: ≥ 10 and < 20) | D (D: ≥ 5 and < 10) | < 100
4 | Cc1ccc(Oc2ccc(Nc3ncnc4sc5c(c34)C(C)N(C(=O)C=CCN(C)C)C5)cc2C)cn1 (single isomer, unassigned) [Compound 148] | > 10000 | B (B: ≥ 20 and < 100) | C (C: ≥ 10 and < 20) | 350 to 1000
5 | COc1ccc(Oc2ccc(Nc3ncnc4sc5c(c34)C(C)CN(C(=O)C=CCN(C)C)C5)cc2C)cn1 (single isomer, unassigned) [Compound 160] | 100 to 1000 | D (D: ≥ 5 and < 10) | D (D: ≥ 5 and < 10) | < 100
6 | Cc1ccc(Oc2ccc(Nc3ncnc4sc5c(c34)CN(C(=O)C=CCN(C)C)C5C)cc2C)cn1 (single isomer, unassigned) [Compound 170] | < 100 | B (B: ≥ 20 and < 100) | B (B: ≥ 20 and < 100) | 350 to 1000
7 | Cc1ccc(Oc2ccc(Nc3ncnc4sc5c(c34)C(C)CN(C(=O)C=CCN3CCOCC3)C5)cc2C)cn1 (single isomer, unassigned) [Compound 176] | 1000 to 10000 | B (B: ≥ 20 and < 100) | B (B: ≥ 20 and < 100) | < 100

More lines, now with the values ahead:

Row | EC50 (EGFR) [nM] | Selectivity A431 EC50/BT474 EC50 (EGFR) | Selectivity A431 EC50/HEKYVMA EC50 (EGFR) | EC50 (HER2YVMA) [nM] | Compound
8 | 100 to 1000 | B (B: ≥ 20 and < 100) | D (D: ≥ 5 and < 10) | < 100 | Cc1ccc(Oc2ccc(Nc3ncnc4sc5c(c34)C[C@@H](C)N(C(=O)/C=C/CN(C)C)[C@H]5C)cc2C)cn1 (racemic) [Compound 149, (E)-1-(6,8-cis-dimethyl-4-((3-methyl-4-((6-methylpyridin-3-yl)oxy)phenyl)amino)-5,8-dihydropyrido[4′,3′:4,5]thieno[2,3-d]pyrimidin-7(6H)-yl)-4-(dimethylamino)but-2-en-1-one]
9 | 1000 to 10000 | B (B: ≥ 20 and < 100) | D (D: ≥ 5 and < 10) | 100 to 350 | Cc1ccc(Oc2ccc(Nc3ncnc4sc5c(c34)C[C@@H](C)N(C(=O)/C=C/CN(C)C)[C@@H]5C)cc2C)cn1 (racemic) [Compound 165, (E)-1-(6,8-trans-dimethyl-4-((3-methyl-4-((6-methylpyridin-3-yl)oxy)phenyl)amino)-5,8-dihydropyrido[4′,3′:4,5]thieno[2,3-d]pyrimidin-7(6H)-yl)-4-(dimethylamino)but-2-en-1-one]
10 | < 100 | B (B: ≥ 20 and < 100) | D (D: ≥ 5 and < 10) | < 100 | Cc1ccc(Oc2ccc(Nc3ncnc4sc5c(c34)C(C)N(C(=O)C=CCN(C)C)C5)cc2C)cn1 (single isomer, unassigned) [Compound 147]
11 | 100 to 1000 | C (C: ≥ 10 and < 20) | E (E: >1 and < 5) | < 100 | COc1ccc(Oc2ccc(Nc3ncnc4sc5c(c34)C(C)CN(C(=O)C=CCN(C)C)C5)cc2C)cn1 (single isomer, unassigned) [Compound 159]
12 | < 100 | D (D: ≥ 5 and < 10) | E (E: >1 and < 5) | < 100 | Cc1ccc(Oc2ccc(Nc3ncnc4sc5c(c34)CC(C)N(C(=O)C=CCN(C)C)C5C)cc2C)cn1 (single isomer, unassigned) [Compound 161]
13 | > 10000 | B (B: ≥ 20 and < 100) | B (B: ≥ 20 and < 100) | 100 to 350 | Cc1ccc(Oc2ccc(Nc3ncnc4sc5c(c34)CC(C)N(C(=O)C=CCN(C)C)C5C)cc2C)cn1 (single isomer, unassigned) [Compound 162]
14 | 100 to 1000 | C (C: ≥ 10 and < 20) | D (D: ≥ 5 and < 10) | < 100 | Cc1ccc(Oc2ccc(Nc3ncnc4sc5c(c34)CN(C(=O)C=CCN(C)C)C5C)cc2C)cn1 (single isomer, unassigned) [Compound 169]
15 | 100 to 1000 | C (C: ≥ 10 and < 20) | D (D: ≥ 5 and < 10) | < 100 | Cc1ccc(Oc2ccc(Nc3ncnc4sc5c(c34)C(C)CN(C(=O)C=CCN3CCOCC3)C5)cc2C)cn1 (single isomer, unassigned) [Compound 177]
